Assay results from patent publication US20190092756A1, “CRYSTALLINE FORM A OF 2-[(2R)-2-METHYL-2-PYRROLIDYL]-1H-BENZIMIDAZOLE-7-CARBOXAMIDE DIHYDROCHLORIDE AND PREPARATION METHOD THEREOF” (Crystal Pharmatech Co., Ltd., priority 2016, published 2019).
Values after ≈ are worked out from the molar mass of the structure shown. Where two headings read alike, the source gives them in different places.

Key:
[1] = Solubility study in SGF, FeSSIF, FaSSIF and water; type: physicochemical
Experimental: Crystalline form A samples were dissolved into 1 mL of simulated gastric fluid (SGF), fed state simulated intestinal fluid (FeSSIF, pH 5.0), fasted state simulated intestinal fluid (FaSSIF, pH 6.5) and water to test the corresponding solubility.

[2] = Mechanical stability study (grinding, XRPD before and after); type: physicochemical; settings: ground for 5 minutes
Experimental: Crystalline form A of present disclosure was ground, and analyzed by XRPD before and after being ground for 5 minutes.

[3] = Physical stability study (storage, XRPD before and after); type: physicochemical; settings: 1 month
Experimental: Crystalline form A was stored at 25° C./60% RH and 40° C./75% RH for one month.

[4] = Particle size distribution (PSD) study, laser particle size analyzer; type: physicochemical; settings: wet method, dispersion medium Isopar G
Source text: The result of particle size distribution (PSD) in the present disclosure was acquired by laser particle size analyzer with S3500 model from Microtrac company. The Microtrac S3500 is equipped with a SDC (Sample Delivery Controller) sampling system. This experiment uses a wet method and the dispersion medium is Isopar G. The method and parameters of the laser particle size analyzer are as follows:
The particle size distributions (PSD) of crystalline form A and crystalline form 1 and form 2 in CN101821269B were studied.

[5] = cited from earlier work; for Solubility (in words): from CN101821270A and CN101821269B

Compound: C[C@]1(c2nc3cccc(C(N)=O)c3[nH]2)CCCN1 [Form A, 2-[(2R)-2-methyl-2-pyrrolidinyl]-1H-benzimidazole-7-carboxamide]
- Observation (dissolution) ([1]; 11.2 mg in 1 mL water): Completely
- Observation (dissolution) ([1]; 11.3 mg in 1 mL FeSSIF, pH 5.0): Completely
- Observation (dissolution) ([1]; 11.5 mg in 1 mL FaSSIF, pH 6.5): Completely
- Observation (dissolution) ([1]; 12.4 mg in 1 mL SGF): Completely
- Weight of sample dissolved ([1]; in 1 mL FaSSIF, pH 6.5): 11.5 mg
- Weight of sample dissolved ([1]; in 1 mL FeSSIF, pH 5.0): 11.3 mg
- Weight of sample dissolved ([1]; in 1 mL SGF): 12.4 mg
- Weight of sample dissolved ([1]; in 1 mL water): 11.2 mg
- Solubility relative to crystalline forms disclosed in the prior art ([1]; in SGF, FaSSIF, FeSSIF and water): at least 2 times
- solubility ([1]; thermodynamic from solid, in SGF, FaSSIF, FeSSIF and water): > 10000 µg/mL
- XRPD pattern change before and after grinding [2]: no significant change
- Crystalline form change ([3]; 25° C./60% RH): No change
- Crystalline form change ([3]; 40° C./75% RH): No change
- D10 [4]: 41.6 μm
- D50 [4]: 278.6 μm
- D90 [4]: 1118 μm
- MV (average based on volume) [4]: 407.2 μm

Compound: C[C@]1(c2nc3c(C(N)=O)cccc3[nH]2)CCCN1 [crystalline form B, 2-[(2R)-2-methyl-2-pyrrolidinyl]-1H-benzimidazole-7-carboxamide]
- solubility ([5]; after 24 hours in SGF, from CN105130961A): 6000 µg/mL (≈ 24.6 mM)

Compound: C[C@]1(c2nc3cccc(C(N)=O)c3[nH]2)CCCN1 [Form 2, 2-[(2R)-2-methyl-2-pyrrolidinyl]-1H-benzimidazole-7-carboxamide]
- Solubility (in words) ([5]; listed as crystalline form 2): poor solubility
- D10 [4]: 8.99 μm
- D50 [4]: 59.08 μm
- D90 [4]: 231.9 μm
- MV (average based on volume) [4]: 94.50 μm

Compound: C[C@]1(c2nc3cccc(C(N)=O)c3[nH]2)CCCN1 [Form 1, 2-[(2R)-2-methyl-2-pyrrolidinyl]-1H-benzimidazole-7-carboxamide]
- Solubility (in words) ([5]; listed as Crystalline form 1): better solubility
- D10 [4]: 11.54 μm
- D50 [4]: 18.89 μm
- D90 [4]: 31.97 μm
- MV (average based on volume) [4]: 20.89 μm
